In US6020341A, “Enediyne quinone imines and methods of preparation and use thereof” (priority 1997, dated 2000):
Read-outs that look alike come from different tables or passages of the source.

Key:
[1] = tested on: Human promyelocytic leukemic cell (HL-60); experiment: Cytotoxicity, HL-60; type: cell-based; conditions: for IC50 / IC90: Homo sapiens; for IC90: read-out: Cytotoxic Concentration IC90
Description: (§1) | cell growth by 50% (IC50) in μM.

[2] = tested on: Human acute lymphoblastic T cells (CCRF-CEM); experiment: Cytotoxicity, CCRF-CEM; type: cell-based; conditions: for IC50 / IC90: Homo sapiens, CCRF-CEM; for IC90: read-out: Cytotoxic Concentration IC90
Description: as §1

[3] = tested on: CCRF-CEM/VM-1 cells; experiment: Cytotoxicity, CCRF-CEM/VM-1; type: cell-based, human; conditions: for IC50 / IC90: Homo sapiens, CCRF-CEM; for IC90: read-out: Cytotoxic Concentration IC90
Description: as §1

[4] = tested on: Chinese hamster lung cells resistant to actinomycin D (DC-3F/ADII); experiment: Cytotoxicity, DC-3F/ADII; type: cell-based; conditions: for IC50 / IC90: Cricetulus griseus, DC3F; for IC90: read-out: Cytotoxic Concentration IC90
Description: as §1

[5] = tested on: HL-60 cells; experiment: Growth inhibition, XTT assay, HL-60; type: cell-based; conditions: Homo sapiens
Method: (§2) Cells were platted on day 1, drug was added on day 2, and XTT assays (for HL-60, MT-2, MT-4 leukemic cells) or SRB assays (for 833K and SK-Br-3 solid tumor cells) were carried out on day 5.

[6] = tested on: MT-2 leukemic cells; experiment: Growth inhibition, XTT assay, MT-2; type: cell-based; conditions: Table 8, MT-2, XTT
Method: as §2

[7] = tested on: SK-Br-3 solid tumor cells; experiment: Growth inhibition, SRB assay, SK-Br-3; type: cell-based; conditions: Homo sapiens, Table 8, SKBr-3, SRB
Method: as §2

[8] = tested on: DC-3F cells; experiment: Single drug effect, SRB assay, DC-3F; type: cell-based, Chinese hamster; conditions: Cricetulus griseus, DC3F, Table 10, DC-3F, 72 h, read-out: Dm
[9] = tested on: MT4 cells; experiment: Cytotoxicity, MT4; type: cell-based; conditions: Table 15, MT4
[10] = Table 3, CCRF-CEM/VM-1, EQI-6 = (1)
[11] = Table 4, DC-3F/ADII, EQI-6 = (1)

CO[C@@]12[C@H](COC(N)=O)C3=C(C(=O)C(C)=C(N)C3=O)N1C[C@@H]1N[C@@H]12 [mitomycin C] was tested, and the IC50 ([1]; HL-60, Table 1, HL-60, read-out: IC50) was 48.4 nM, the IC50 ([1]; HL-60, Table 2, HL60, read-out: concentration required to inhibit cell growth by 50% (IC50)) was 48 nM and the IC50 ([1]; HL-60, Table 3, HL-60, read-out: Cytotoxic Concentration IC50) was 48.4 nM. It also gave an IC90 ([1]; HL-60, Table 3, HL-60) of 197 nM, an IC50 ([1]; HL-60, Table 15, HL-60, read-out: Cytotoxic Concentration IC50) of 51 nM and an IC90 ([1]; HL-60, Table 15, HL-60) of 167 nM. The “Cytotoxic Concentration IC95” value ([1]; Table 3, HL-60) was 319 nM, the “ratio of IC50 to EQI-6 (in parentheses)” value ([1]; Table 3, HL-60, EQI-6 = (1)) was 83.4 × and the “ratio of IC90 to EQI-6 (in parentheses)” value ([1]; Table 3, HL-60, EQI-6 = (1)) was 75.8 ×. The “ratio of IC95 to EQI-6 (in parentheses)” value ([1]; Table 3, HL-60, EQI-6 = (1)) was 72.5 ×, the “Cytotoxic Concentration IC95” value ([1]; Table 15, HL-60) was 250 nM and the IC50 ([2]; Table 1, CCRF-CEM, read-out: IC50) was 140 nM. It also gave an IC50 ([2]; Table 2, CCRF/CEM, read-out: concentration required to inhibit cell growth by 50% (IC50)) of 140 nM, an IC50 ([2]; Table 3, CCRF-CEM, read-out: Cytotoxic Concentration IC50) of 140 nM and an IC90 ([2]; Table 3, CCRF-CEM) of 364 nM. For the same compound, the IC50 ([2]; Table 14, CCRF-CEM, read-out: Cytotoxic Concentration IC50) was 96 nM, the IC90 ([2]; Table 14, CCRF-CEM) was 370 nM and the “Cytotoxic Concentration IC95” value ([2]; Table 3, CCRF-CEM) was 503 nM. For the same compound, the “ratio of IC50 to EQI-6 (in parentheses)” value ([2]; Table 3, CCRF-CEM, EQI-6 = (1)) was 280 ×, the “ratio of IC90 to EQI-6 (in parentheses)” value ([2]; Table 3, CCRF-CEM, EQI-6 = (1)) was 165 × and the “ratio of IC95 to EQI-6 (in parentheses)” value ([2]; Table 3, CCRF-CEM, EQI-6 = (1)) was 136 ×. The “Cytotoxic Concentration IC95” value ([2]; Table 14, CCRF-CEM) was 584 nM, the IC50 ([3]; Table 2, CCRF/VM-1 (MDR/TopoII), read-out: concentration required to inhibit cell growth by 50% (IC50)) was 216 nM and the IC50 ([3]; Table 3, CCRF-CEM/VM-1, read-out: Cytotoxic Concentration IC50) was 216 nM. It also gave an IC90 ([3]; Table 3, CCRF-CEM/VM-1) of 895 nM, an IC50 ([3]; Table 14, CCRF-CEM/VM-1, read-out: Cytotoxic Concentration IC50) of 113 nM and an IC90 ([3]; Table 14, CCRF-CEM/VM-1) of 675 nM. The “Cytotoxic Concentration IC95” value ([3]; Table 3, CCRF-CEM/VM-1) was 1373 nM, the “ratio of IC50 to EQI-6 (in parentheses)” value [3, 10] was 113.7 × and the “ratio of IC90 to EQI-6 (in parentheses)” value [3, 10] was 45.5 ×. For the same compound, the “ratio of IC95 to EQI-6 (in parentheses)” value [3, 10] was 90.9 ×, the “Cytotoxic Concentration IC95” value ([3]; Table 14, CCRF-CEM/VM-1) was 1239 nM and the IC50 ([4]; Table 2, DC-3F/ADII (MDR/Actinomycin D), read-out: concentration required to inhibit cell growth by 50% (IC50)) was 113 nM. The IC50 ([4]; Table 4, DC-3F/ADII, read-out: Cytotoxic Concentration IC50) was 113 nM, the IC90 ([4]; Table 4, DC-3F/ADII) was 380 nM and the IC50 ([4]; Table 13, DC-3F/ADII, read-out: Cytotoxic Concentration IC50) was 74 nM. For the same compound, the IC90 ([4]; Table 13, DC-3F/ADII) was 264 nM, the “Cytotoxic Concentration IC95” value ([4]; Table 4, DC-3F/ADII) was 575 nM and the “ratio of IC50 to EQI-6 (in parentheses)” value [4, 11] was 92.2 ×. For the same compound, the “ratio of IC90 to EQI-6 (in parentheses)” value [4, 11] was 24.7 ×, the “ratio of IC95 to EQI-6 (in parentheses)” value [4, 11] was 26.9 × and the “Cytotoxic Concentration IC95” value ([4]; Table 13, DC-3F/ADII) was 406 nM. For the same compound, the IC50 ([5]; Table 8, HL-60, XTT, growth inhibition, read-out: IC50) was 80 nM, the IC50 ([5]; Table 9, HL 60, XTT, 72 h, read-out: Dm) was 48 nM and the IC50 [6] was 100 nM. The IC50 [7] was 300 nM, the IC50 [8] was 59 nM and the IC50 ([9]; Homo sapiens, read-out: Cytotoxic Concentration IC50) was 115 nM. For the same compound, the IC90 ([9]; Homo sapiens, read-out: Cytotoxic Concentration IC90) was 253 nM and the “Cytotoxic Concentration IC95” value [9] was 331 nM.
